# Patent publication US4435405A, “Quinoline derivatives which are 5-hydroxytryptamine antagonists” (Imperial Chemical Industries PLC, priority 1981, dated 1984)
# Key:
# LD50 in the mouse = conditions: in vivo
# LD50 in the rat = conditions: in vivo, female
# [1] = ip, intraperitoneally in the mouse
SMILES,LD50 (LD50 in the mouse; [1]) [mg/kg],LD50 (LD50 in the rat; oral) [mg/kg],"LD50 (LD50 in the rat; ip, intraperitoneal) [mg/kg]","LD50 (LD50 in the mouse; ip, mouse, male, intraperitoneal) [mg/kg]","LD50 (LD50 in the mouse; mouse, male, oral) [mg/kg]"
COc1ccccc1-c1cc2ccccc2nc1SCCN(C)C.Cl [2-(2-dimethylaminoethylthio)-3-(o-methoxyphenyl)-quinoline hydrochloride],~150,,,,
CC(C)c1cc2ccccc2nc1SCCN(C)C.Cl [2-(2-dimethylaminoethylthio)-3-isopropylquinoline hydrochloride],~100,,,,
CN(C)CCSc1nc2ccccc2cc1-c1ccccc1.Cl [2-(2-dimethylaminoethylthio)-3-phenylquinoline hydrochloride],,> 1000,128,75,485
